Experiment [1] addresses T1, unphosphorylated c-FMS kinase (uFMS, Seq. ID no. 1) (Homo sapiens, UniProt P07333).
T1 construct: purchased Millipore
T1 sequence (P07333 538-972): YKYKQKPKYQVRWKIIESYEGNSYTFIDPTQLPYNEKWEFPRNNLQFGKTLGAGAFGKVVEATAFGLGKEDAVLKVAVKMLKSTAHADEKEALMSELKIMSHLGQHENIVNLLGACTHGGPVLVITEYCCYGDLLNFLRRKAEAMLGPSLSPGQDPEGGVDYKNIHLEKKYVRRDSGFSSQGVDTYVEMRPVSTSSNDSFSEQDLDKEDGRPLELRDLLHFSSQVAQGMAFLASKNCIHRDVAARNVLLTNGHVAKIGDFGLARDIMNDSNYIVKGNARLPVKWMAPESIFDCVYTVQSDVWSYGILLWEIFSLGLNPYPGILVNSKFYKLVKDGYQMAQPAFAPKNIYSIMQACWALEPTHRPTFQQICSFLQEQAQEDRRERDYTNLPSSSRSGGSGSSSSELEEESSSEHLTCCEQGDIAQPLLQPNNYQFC
Nature of the experiment: uFMS kinase enzymatic assay (pyruvate kinase/lactate dehydrogenase coupled). It counts as biochemical. The note with it: ATP 500 μM, rate 3 to 4 h. The protocol: uFMS Kinase (Seq. ID No. 1) Assay
Activity of unphosphorylated c-FMS kinase (uFMS, Seq. ID no. 1) was determined by following the production of ADP from the FMS kinase reaction with ATP and poly E4Y as substrates through coupling with the pyruvate kinase/lactate dehydrogenase system (e.g., Schindler et al. Science (2000) 289: 1938-1942). In this assay, the oxidation of NADH (thus the decrease at A340 nm) was continuously monitored spectrophometrically. The reaction mixture (100 μL) contained FMS (purchased from Millipore) (10 nM), polyE4Y (1 mg/mL), MgCl2 (10 mM), pyruvate kinase (4 units), lactate dehydrogenase (0.7 units), phosphoenol pyruvate (1 mM), NADH (0.28 mM) and ATP (500 μM) in 90 mM Tris buffer containing 0.2% octyl-glucoside and 1% DMSO, pH 7.5. The inhibition reaction was started by mixing serial diluted test compound with the above reaction mixture. The absorption at 340 nm was monitored continuously for 4 hours at 30° C. on Synergy 2 plate reader. The reaction rate was calculated using the 3 to 4 h time frame. Percent inhibition was obtained by comparison of reaction rate with that of a control (i.e. in the absence of test compound). IC50 values were calculated from a series of percent inhibition values determined at a range of inhibitor concentrations using software routines as implemented in the GraphPad Prism software package.

Experiment [2] deals with T2, unphosphorylated c-KIT kinase (uKIT, Seq. ID no. 2) (Homo sapiens, UniProt P10721).
T2 construct: uKit with N-terminal GST fusion used for screening
Briefly: uKit kinase enzymatic assay (pyruvate kinase/lactate dehydrogenase coupled). It counts as biochemical. As to conditions: ATP 2000 μM, rate 3 to 4 h. Here is the method: uKit Kinase (Seq. ID No. 2) Assay
Activity of unphosphorylated c-KIT kinase (uKIT, Seq. ID no. 2) was determined by following the production of ADP from the KIT kinase reaction with ATP and poly E4Y as substrates through coupling with the pyruvate kinase/lactate dehydrogenase system (e.g., Schindler et al. Science (2000) 289: 1938-1942). In this assay, the oxidation of NADH (thus the decrease at A340 nm) was continuously monitored spectrophometrically. The reaction mixture (100 μl) contained unphosphorylated KIT (12 nM), polyE4Y (1 mg/mL), MgCl2 (10 mM), pyruvate kinase (4 units), lactate dehydrogenase (0.7 units), phosphoenol pyruvate (1 mM), and NADH (0.28 mM) and ATP (2000 μM) in 90 mM Tris buffer containing 0.2% octyl-glucoside and 1% DMSO, pH 7.5. The inhibition reaction was started by mixing serial diluted test compound with the above reaction mixture. The absorption at 340 nm was monitored continuously for 4 hours at 30° C. on Synergy 2 plate reader (BioTech). Reaction rates around 3 to 4 h time frame were used to calculate % inhibitions, from which IC50 values were generated.

Experiment [3] has as its target T3, unphosphorylated PDGFRβ kinase (uPDGFRβ, Seq. ID No. 3) (Homo sapiens, UniProt P09619).
T3 construct: purchased DeCode
Briefly: uPDGFRβ kinase enzymatic assay (pyruvate kinase/lactate dehydrogenase coupled). Type of experiment: biochemical. As to conditions: ATP 500 μM, rate 1.5 to 2.5 h. Here is the method:
Unphosphorylated PDGFRβ (uPDGFRβ) Kinase (Seq. ID No. 3) Assay
Activity of unphosphorylated PDGFRβ kinase (uPDGFRβ, Seq. ID No. 3) was determined by following the production of ADP from the kinase reaction with ATP and poly E4Y as substrates through coupling with the pyruvate kinase/lactate dehydrogenase system (e.g., Schindler et al. Science (2000) 289: 1938-1942). In this assay, the oxidation of NADH (thus the decrease at A340 nm) was continuously monitored spectrophometrically. The reaction mixture (100 μL) contained PDGFRβ (DeCode, 15.7 nM), polyE4Y (2.5 mg/mL), MgCl2 (10 mM), pyruvate kinase (4 units), lactate dehydrogenase (0.7 units), phosphoenol pyruvate (1 mM) and NADH (0.28 mM) and ATP (500 μM) in a 90 mM Tris buffer containing 0.2% octyl-glucoside and 1% DMSO, at pH 7.5. The inhibition reaction was started by mixing serial diluted test compound with the above reaction mixture. The absorption at 340 nm was monitored continuously for 4 h at 30° C. on a Polarstar Optima or Synergy 2 plate reader. The reaction rate was calculated using the 1.5 to 2.5 h time frame. Percent inhibition was obtained by comparison of reaction rate with that of a control (i.e. with no test compound). IC50 values were calculated from a series of percent inhibition values determined at a range of inhibitor concentrations using software routines as implemented in the GraphPad Prism software package.

The test system of the next experiment is M-NFS-60 cells. Briefly: M-NFS-60 cell proliferation assay (resazurin). It counts as cell-based. The note with it: 67 h incubation. Here is the method: M-NFS-60 cells (catalog #CRL-1838) were obtained from the American Type Culture Collection (ATCC, Manassas, Va.). Briefly, cells were grown in suspension in RPMI 1640 medium supplemented with 10% characterized fetal bovine serum (Invitrogen, Carlsbad, Calif.), 0.05 mM 2-mercaptoethanol, and 20 ng/mL mouse recombinant macrophage colony stimulating factor (M-CSF) at 37° C., 5% CO2, and 95% humidity. Cells were allowed to expand until reaching saturation at which point they were subcultured or harvested for assay use.
M-NFS-60 Cell Proliferation Assay
A serial dilution of test compound was dispensed into a 384-well black clear bottom plate (Corning, Corning, N.Y.). Two thousand five hundred cells were added per well in 50 μL complete growth medium. Plates were incubated for 67 h at 37° C., 5% CO2, and 95% humidity. At the end of the incubation period 10 μL of a 440 μM solution of resazurin (Sigma, St. Louis, Mo.) in PBS was added to each well and incubated for an additional 5 h at 37° C., 5% CO2, and 95% humidity. Plates were read on a Synergy2 reader (Biotek, Winooski, Vt.) using an excitation of 540 nm and an emission of 600 nm. IC50 values were calculated from a series of percent inhibition values determined at a range of inhibitor concentrations using software routines as implemented in the GraphPad Prism software package.

The test system of a further experiment is osteoclast precursors. Briefly: Osteoclast tartrate-resistant acid phosphatase assay. Type of experiment: cell-based. As to conditions: RANKL and M-CSF, 7-14 days, tartrate-resistant acid phosphatase activity. Here is the method: Osteoclast Tartrate-Resistant Acid Phosphatase Assay
A serial dilution of test compound was dispensed into a 384-well black clear bottom plate (Nalge Nunc International, Rochester, N.Y.). Compound was diluted by the addition of DMEM media supplemented with 10% characterized fetal bovine serum (Invitrogen, Carlsbad, Calif.). Diluted compound was transferred to a 384-well black clear bottom plate. Two-thousand five hundred osteoclast precursors (Lonza, Walkersville, Md.) were added per well in growth media containing Receptor Activator of Nuclear Factor Kappa-beta ligand (RANKL) and M-CSF (R&D Systems, Minneapolis, Minn.). Plates were incubated for 7-14 days at 37 degrees Celsius, 5% CO2, and 95% humidity to allow differentiation of osteoclast precursors. At the end of the incubation period, 10 μL of supernatant from each well was transferred to a clear 384-well plate. Tartrate-resistant acid phosphatase activity in the supernatant samples was determined using an acid phosphatase assay kit (Sigma, St. Louis, Mo.). Absorbance was measured at 550 nm using a plate reader. Data was analyzed using Prism software (Graphpad, San Diego, Calif.) to calculate IC50 values.

T2 sequence (P10721 with tags, fused parts or gaps): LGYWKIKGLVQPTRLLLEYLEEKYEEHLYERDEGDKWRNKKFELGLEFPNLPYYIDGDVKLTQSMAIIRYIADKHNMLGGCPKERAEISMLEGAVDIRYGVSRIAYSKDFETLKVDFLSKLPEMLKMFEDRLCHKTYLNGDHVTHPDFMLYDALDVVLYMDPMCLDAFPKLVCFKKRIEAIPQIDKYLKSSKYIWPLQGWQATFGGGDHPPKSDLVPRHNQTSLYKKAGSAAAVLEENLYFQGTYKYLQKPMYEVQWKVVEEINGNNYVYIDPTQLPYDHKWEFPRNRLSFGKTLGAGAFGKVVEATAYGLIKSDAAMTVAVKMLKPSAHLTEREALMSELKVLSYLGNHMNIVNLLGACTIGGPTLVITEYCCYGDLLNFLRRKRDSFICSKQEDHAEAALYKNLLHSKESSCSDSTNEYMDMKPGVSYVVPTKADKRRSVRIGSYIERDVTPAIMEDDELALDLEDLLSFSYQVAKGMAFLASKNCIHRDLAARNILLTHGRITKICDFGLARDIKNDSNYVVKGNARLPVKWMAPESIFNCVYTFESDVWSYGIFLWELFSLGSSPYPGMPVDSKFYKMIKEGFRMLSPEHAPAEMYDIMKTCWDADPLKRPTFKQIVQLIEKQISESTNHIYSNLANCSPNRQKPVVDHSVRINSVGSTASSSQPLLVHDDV
T3 sequence (P09619 557-1106): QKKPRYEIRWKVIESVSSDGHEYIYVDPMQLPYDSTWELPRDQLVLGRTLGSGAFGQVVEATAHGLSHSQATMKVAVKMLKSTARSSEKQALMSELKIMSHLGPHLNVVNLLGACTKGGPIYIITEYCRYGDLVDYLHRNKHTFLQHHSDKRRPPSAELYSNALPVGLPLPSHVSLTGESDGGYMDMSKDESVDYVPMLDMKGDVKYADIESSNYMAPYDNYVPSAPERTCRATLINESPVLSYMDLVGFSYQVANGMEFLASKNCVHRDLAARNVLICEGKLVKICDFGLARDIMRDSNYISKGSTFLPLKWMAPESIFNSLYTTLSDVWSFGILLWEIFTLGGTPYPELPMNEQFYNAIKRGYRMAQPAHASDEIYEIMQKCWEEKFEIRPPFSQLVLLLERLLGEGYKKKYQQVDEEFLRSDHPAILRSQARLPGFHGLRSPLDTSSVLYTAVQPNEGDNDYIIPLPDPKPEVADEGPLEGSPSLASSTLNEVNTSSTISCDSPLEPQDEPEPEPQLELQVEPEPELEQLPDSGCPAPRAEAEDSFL

One may read the IC50 as the point on the concentration scale where inhibition reaches its midpoint. Regarding `COC(C)(C)c1nn(-c2cc(C)c(Oc3ccnc(NC(C)=O)c3)cn2)c(=O)[nH]1` [Example 44, N-(4((6-(3-(2-methoxypropan-2-yl)-5-oxo-4,5-dihydro-1H-1,2,4-triazol-1-yl)-4-methylpyridin-3-yl)oxy)pyridin-2-yl)acetamide], the half-maximal inhibitory concentration (IC50) (in experiment [1]; in experiment [2]; in experiment [3]; in the experiment on M-NFS-60 cells; with osteoclast precursors) was 100 to 1000 nM each time.
Turning to `Cc1nc(-n2nc(C(C)(C)C)[nH]c2=O)ccc1Oc1ccnc(-c2ccc(N3CCN(C)CC3)nc2)c1` [Example 40, 3-(tert-butyl)-1-(6-methyl-5-((6′-(4-methylpiperazin-1-yl)-[2,3′-bipyridin]-4-yl)oxy)pyridin-2-yl)-1H-1,2,4-triazol-5(4H)-one], the IC50 in experiment [1] is 10 to 100 nM; in experiment [2], 100 to 1000 nM; in experiment [3], more than 1000 nM; in the experiment with M-NFS-60 cells, 10 to 100 nM; in the experiment on osteoclast precursors, 10 to 100 nM.
As to `Cc1cn(-c2cc(Oc3ccc(-n4nc(-c5ccc(F)cc5)[nH]c4=O)nc3C)ccn2)cn1` [Example 29, 3-(4-fluorophenyl)-1-(6-methyl-5-((2-(4-methyl-1H-imidazol-1-yl)pyridin-4-yl)oxy)pyridin-2-yl)-1H-1,2,4-triazol-5(4H)-one], the IC50 in experiment [1] was 10 to 100 nM; in experiment [2], 100 to 1000 nM; in experiment [3], more than 1000 nM; in the experiment with M-NFS-60 cells, 100 to 1000 nM; in the experiment with osteoclast precursors it was 100 to 1000 nM.
As to `COCCc1nn(-c2ccc(Oc3ccnc(-c4cnn(C)c4)c3)c(C)n2)c(=O)[nH]1` [Example 15, 3-(2-methoxyethyl)-1-(6-methyl-5-((2-(1-methyl-1H-pyrazol-4-yl)pyridin-4-yl)oxy)pyridin-2-yl)-1H-1,2,4-triazol-5(4H)-one], the IC50 in experiment [1] is 10 to 100 nM; in experiment [2], more than 1000 nM; in experiment [3], more than 1000 nM; in the experiment on M-NFS-60 cells, more than 1000 nM; with osteoclast precursors, 100 to 1000 nM.
`Cc1nc(-n2nc(C(C)(C)C)[nH]c2=O)ccc1Oc1ccnc(-c2cnn(CCO)c2)c1` [Example 18, 3-(tert-butyl)-1-(5-((2-(1-(2-hydroxyethyl)-1H-pyrazol-4-yl)pyridin-4-yl)oxy)-6-methylpyridin-2-yl)-1H-1,2,4-triazol-5(4H)-one]: the IC50 in experiment [1] was 10 to 100 nM; in experiment [2], 100 to 1000 nM; in experiment [3], more than 1000 nM; with M-NFS-60 cells, 100 to 1000 nM; in the experiment with osteoclast precursors, 100 to 1000 nM.
Regarding `CC(=O)Nc1cc(Oc2ccc(-n3nc(C(C)(C)C)[nH]c3=O)nc2C)ccn1` [Example 11, N-(4-((6-(3-(tert-butyl)-5-oxo-4,5-dihydro-1H-1,2,4-triazol-1-yl)-2-methylpyridin-3-yl)oxy)pyridin-2-yl)acetamide], the IC50 in experiment [1] was 10 to 100 nM; in experiment [2], more than 1000 nM; in experiment [3], more than 1000 nM; with M-NFS-60 cells, 100 to 1000 nM; in the experiment with osteoclast precursors it was 100 to 1000 nM.
Regarding `COCc1nn(-c2ccc(Oc3ccnc(-c4cnn(C)c4)c3)c(C)n2)c(=O)[nH]1` [Example 17, 3-(methoxymethyl)-1-(6-methyl-5-((2-(1-methyl-1H-pyrazol-4-yl)pyridin-4-yl)oxy)pyridin-2-yl)-1H-1,2,4-triazol-5(4H)-one], the IC50 was 100 to 1000 nM in experiment [1], more than 1000 nM in experiment [2], more than 1000 nM in the experiment with M-NFS-60 cells and more than 1000 nM in the experiment on osteoclast precursors.
As to `Cc1nc(-n2nc(C(C)(C)CO)[nH]c2=O)ccc1Oc1ccnc(-c2cnn(C)c2)c1` [Example 42, 3-(1-hydroxy-2-methylpropan-2-yl)-1-(6-methyl-5-((2-(1-methyl-1H-pyrazol-4-yl)pyridin-4-yl)oxy)pyridin-2-yl)-1H-1,2,4-triazol-5(4H)-one], the IC50 in experiment [1] was 10 to 100 nM; in experiment [2] it was more than 1000 nM; in experiment [3], more than 1000 nM; in the experiment on M-NFS-60 cells it was more than 1000 nM; in the experiment on osteoclast precursors, 100 to 1000 nM.
Turning to `Cc1nc(-n2nc(-c3ccc(F)cc3)[nH]c2=O)ccc1Oc1ccnc(-c2cnn(C)c2)c1` [Example 28, 3-(4-fluorophenyl)-1-(6-methyl-5-((2-(1-methyl-1H-pyrazol-4-yl)pyridin-4-yl)oxy)pyridin-2-yl)-1H-1,2,4-triazol-5(4H)-one], the IC50 is not above 10 nM in experiment [1]; 10 to 100 nM in experiment [2]; more than 1000 nM in experiment [3]; 10 to 100 nM in the experiment on M-NFS-60 cells; 10 to 100 nM with osteoclast precursors.

Values taken from patent publication US9193719B2, “1,2,4-triazol-5-ones and analogs exhibiting anti-cancer and anti-proliferative activities” (Deciphera Pharmaceuticals, LLC, priority 2013, dated 2015).
